Source: article PMC10300873, “Characterization of Polyphenols from Chenopodium botrys after Fractionation with Different Solvents and Study of Their In Vitro Biological Activity” (Molecules, 2023)

System: T1, trypsin
T1 construct: gene PRSS1
Test: antitryptic activity: albumin digestion, perchloric acid precipitation, A280
Format: biochemical
Details: human albumin (4% v/v) as substrate, Tris-HCl pH 7.4, 37 °C, 5 min preincubation, 20 min reaction
Excerpt: antitryptic activity: albumin digestion, perchloric acid precipitation, A280 on trypsin

ATA / IC50 ± SD: 259.82 ± 9.14 µg/mL
SMILES: CC(C)Cc1ccc(C(C)C(=O)O)cc1 (stereo not shown) [ibuprofen]
